Data from patent US20170313669A1, “LACTONE COMPOUNDS AND METHODS OF MAKING AND USING SAME” (THE SCRIPPS RESEARCH INSTITUTE, priority 2015, published 2017).

Experiments:
[1] = biological target: T1, ABHD2 (Homo sapiens, UniProt P08910); assay: ABPP-SILAC, COLO205 cells treated in situ; type: cell-based; conditions: COLO 205, 4 h
T1 construct: All ABPP-SILAC experiments were performed using the human COLO205 colon cancer cell line; endogenous in cells; host or cells: COLO205

[2] = test system: ABHD16A−/− macrophages; assay: Lyso-PS and cytokines of ABHD16A−/− macrophages; type: cell-based, mouse; conditions: basal or LPS stimulation; 1 μM, 4 h
Description: Concentration of secreted lyso-PS (a) and cytokines IL-6 (b) and TNF-α (c) from thioglycollate-elicited peritoneal mouse macrophages from ABHD16A^−/− mice treated with inhibitor (KC01 or KC02, 1 μM, 4 h) followed by vehicle (PBS) or LPS (5 μg/mL) for 7 h is shown. Data represent mean±s.e.m. for four biological replicates. KC01 and KC02 have no effect on lyso-PS or cytokine secretion. Other secreted and cellular lipids in ABHD16A^−/− macrophages were also unchanged by KC01 or KC02 treatment (data not shown).
Peritoneal macrophages were elicited and harvested from mice according to the standard protocols available from LIPID MAPS (See http://www.lipidmaps.org/protocols/PP0000001400.pdf and http://www.lipidmaps.org/protocols/PP0000001500.pdf). After removal of the RBC lysis buffer, the macrophages were re-suspended in RPMI 1640 with 10% FCS and IX penicillin-streptomycin. Cell counts measured using a Bio-Rad TC10 automated cell counter, and equal numbers of cells (2×10^6) were plated in 10 cm tissue culture dishes. Macrophages were allowed to adhere to the plates for 2 h at 37° C. and 5% CO2. […] Macrophages were then stimulated with lipopolysaccharide (5 μg/mL) for 7 hours. Sterile PBS was the vehicle in these studies. Four milliliters of the media was used for measuring secreted metabolites, and 0.5 mL was used for cytokine measurements.

[3] = test system: additional off-targets (serine hydrolases); assay: ABPP-SILAC, COLO205 cells treated in situ; type: cell-based, human; conditions: 1 μM, 4 h
[4] = biological target: T2, mouse ABHD16A (Mus musculus, UniProt Q9Z1Q2); assay: PS substrate assay, mouse ABHD16A-transfected HEK293T proteome; type: biochemical; conditions: 30 min, 37° C.; C18:0/C18:2 PS 100 μM; read-out: IC50, PS-lipase activity
T2 construct: full-length cDNA of human ABHD16A (Open Biosystems Catalog # MHS6278-202758315) or murine ABHD16A (Open Biosystems Catalog # MMM1013-202760516); host or cells: HEK293T, transient, pCMV-SPORT6
T2 sequence (Q9Z1Q2 1-558): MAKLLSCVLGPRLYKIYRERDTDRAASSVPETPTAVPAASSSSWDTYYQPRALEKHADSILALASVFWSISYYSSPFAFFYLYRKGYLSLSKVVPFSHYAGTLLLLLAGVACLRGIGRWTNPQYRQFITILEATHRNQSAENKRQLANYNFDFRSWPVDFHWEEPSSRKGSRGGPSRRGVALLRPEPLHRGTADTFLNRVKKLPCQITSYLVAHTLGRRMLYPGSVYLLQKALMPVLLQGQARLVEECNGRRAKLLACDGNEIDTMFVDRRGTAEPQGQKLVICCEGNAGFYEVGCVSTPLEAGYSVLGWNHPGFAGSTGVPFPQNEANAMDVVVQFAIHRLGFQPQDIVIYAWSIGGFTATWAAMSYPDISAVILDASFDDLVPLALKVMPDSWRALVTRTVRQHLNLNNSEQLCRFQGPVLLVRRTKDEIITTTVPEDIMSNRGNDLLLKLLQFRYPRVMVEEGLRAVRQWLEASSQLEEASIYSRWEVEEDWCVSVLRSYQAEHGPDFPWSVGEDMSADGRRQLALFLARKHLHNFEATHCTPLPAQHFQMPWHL

[5] = test system: MCF7 cells; assay: PS lipase activity of membrane fraction after in situ treatment; conditions: 1 μM, 4 h
[6] = biological target: PS lipase activity of mouse peritoneal macrophages (Mus musculus, UniProt Q9Z1Q2); assay: PS lipase activity of peritoneal macrophage membrane proteomes; conditions: LPS-stimulated macrophages; 1 μM, 30 min, 37° C.
[7] = test system: serine hydrolases; assay: Gel-based ABPP in K562, off-targets; type: cell-based, human
Description: The K562 cell line was treated with varying concentrations of KC01 for 4 h and the cell membrane fractions analyzed by gel-based ABPP. More specifically, the membrane proteome of K562 cells (left gel, FIG. 9) or cultured K562 cells (right gel, FIG. 9) were treated with the indicated concentrations of KC01 (in vitro: 1 mg/mL proteome; 30 min treatment, 37° C.; in situ: 2×10^6 cells; 4 h treatment, 37° C.), followed by FP-rhodamine (added in vitro to cell proteomes at 2 μM for 30 min, 37° C.) and analyzed by gel-based ABPP. Estimated in vitro and in situ IC50 values for KC01 from the gel-based ABPP experiments were 0.2-0.5 μM. Gel-based ABPP experiments were performed in triplicate with consistent results.

[8] = biological target: T3, ABHD16A (Homo sapiens, UniProt O95870); assay: ABPP-SILAC, COLO205 cells treated in situ; type: cell-based; set-up: All ABPP-SILAC experiments were performed using the human COLO205 colon cancer cell line; endogenous in cells; host or cells: COLO205
T3 sequence (O95870 1-558): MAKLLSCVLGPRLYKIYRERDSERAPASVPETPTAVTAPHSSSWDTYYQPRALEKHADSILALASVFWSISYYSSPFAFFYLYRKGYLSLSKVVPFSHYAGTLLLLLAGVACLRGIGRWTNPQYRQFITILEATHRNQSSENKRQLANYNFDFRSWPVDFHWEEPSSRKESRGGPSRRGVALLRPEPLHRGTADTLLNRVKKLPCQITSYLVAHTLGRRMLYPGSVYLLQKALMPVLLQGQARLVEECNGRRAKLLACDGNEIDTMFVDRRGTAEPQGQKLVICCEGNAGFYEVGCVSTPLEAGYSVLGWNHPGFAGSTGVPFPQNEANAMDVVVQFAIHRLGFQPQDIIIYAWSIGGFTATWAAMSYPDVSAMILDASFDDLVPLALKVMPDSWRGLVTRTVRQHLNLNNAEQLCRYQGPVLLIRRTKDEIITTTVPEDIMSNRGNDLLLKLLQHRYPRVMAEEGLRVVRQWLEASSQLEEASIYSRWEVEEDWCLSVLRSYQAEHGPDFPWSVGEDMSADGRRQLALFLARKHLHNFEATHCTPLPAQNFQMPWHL

T1 sequence (P08910 whole entry): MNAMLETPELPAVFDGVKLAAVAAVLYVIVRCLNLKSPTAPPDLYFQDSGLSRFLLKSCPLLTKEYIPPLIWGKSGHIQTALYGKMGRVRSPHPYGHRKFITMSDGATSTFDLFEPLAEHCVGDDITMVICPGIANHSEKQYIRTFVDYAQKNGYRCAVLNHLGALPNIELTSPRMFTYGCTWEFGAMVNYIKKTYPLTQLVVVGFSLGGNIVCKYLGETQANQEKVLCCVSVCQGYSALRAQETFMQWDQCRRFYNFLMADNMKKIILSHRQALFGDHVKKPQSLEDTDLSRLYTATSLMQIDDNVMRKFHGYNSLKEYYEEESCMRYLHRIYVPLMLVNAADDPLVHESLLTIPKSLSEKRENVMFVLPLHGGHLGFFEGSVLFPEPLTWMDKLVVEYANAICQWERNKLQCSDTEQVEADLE

CCCCCCCCCCCCCC1OC(=O)/C1=C\CCCCC(N)=O (stereo not drawn) [KC01, (Z)-6-(2-oxo-4-tridecyloxetan-3-ylidene)hexanamide]
inhibition at 1 µM [1]: 94% | cellular or secreted lyso-PS, other lipids, secreted IL-6 and TNF-α [2]: No changes | inhibition [3]: 50-80% | IC50 [4]: 520 ± 70 nM | decrease of PS-lipase activity vs DMSO [5]: > 90% | PS lipase activity [6]: blocked | off-targets detected [7]: Very few off-targets | light:heavy ratio ([8]; 1 μM, 4 h): 0.02 | inhibition at 1 µM ([8]; COLO 205, 4 h): 98%
